From ChEMBL document CHEMBL1201862, “PubChem BioAssay data set” (2004)
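Growth conditions: 96-well plates. Treatment: test compound, 48 hours, 5 concentrations. Analysis: linear interpolation between bracketing concentrations; unreached endpoints set to highest concentration. Here, GI50 denotes the concentration required for 50% inhibition of growth.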 Calls of active or inactive are those of the source. Cut-off read from the data, not from the text of the source: active = GI50 up to about 1.1 µM and inactive = higher.

Tests used:
Assay in all cases: NCI tumour cell line growth inhibition, 48 h
ACHN = system: ACHN
SK-OV-3 = system: SK-OV-3
MDA-N = system: MDA-N
UACC-257 = system: UACC-257
SNB-75 = system: SNB-75
CCRF-CEM = system: CCRF-CEM
SF-539 = system: SF-539
PC-3 = system: PC-3
RXF 393 = system: RXF 393
Malme-3M = system: Malme-3M
A549 = system: A549
LOX IMVI = system: LOX IMVI
SF-268 = system: SF-268
HOP-92 = system: HOP-92
UACC-62 = system: UACC-62
MDA-MB-231 = system: MDA-MB-231
BT-549 = system: BT-549
SR = system: SR
OVCAR-5 = system: OVCAR-5
SW-620 = system: SW-620

| SMILES | GI50 (ACHN) | GI50 (SK-OV-3) | GI50 (MDA-N) | GI50 (UACC-257) | GI50 (SNB-75) | GI50 (CCRF-CEM) | GI50 (SF-539) | GI50 (PC-3) | GI50 (RXF 393) | GI50 (Malme-3M) | GI50 (A549) | GI50 (LOX IMVI) | GI50 (SF-268) | GI50 (HOP-92) | GI50 (UACC-62) | GI50 (MDA-MB-231) | GI50 (BT-549) | GI50 (SR) | GI50 (OVCAR-5) | GI50 (SW-620) |
| --- | --- | --- | --- | --- | --- | --- | --- | --- | --- | --- | --- | --- | --- | --- | --- | --- | --- | --- | --- | --- |
| CN(C)CCCN1c2ccccc2Sc2cnccc21 | 52.8 µM (inactive) | > 100 µM (inactive) | 64.7 µM (inactive) | 19.7 µM (inactive) | > 100 µM (inactive) | 93.5 µM (inactive) | 54.6 µM (inactive) | > 100 µM (inactive) | 83 µM (inactive) | > 100 µM (inactive) | > 100 µM (inactive) | 65.2 µM (inactive) | > 100 µM (inactive) | 61 µM (inactive) | 38.5 µM (inactive) | 42.1 µM (inactive) | > 100 µM (inactive) | 34.2 µM (inactive) | > 100 µM (inactive) | > 100 µM (inactive) |
| O=C1CCCCCCCCCCC1CN1CCOCC1 (stereo not drawn) | > 100 µM (inactive) | > 100 µM (inactive) | > 100 µM (inactive) | > 100 µM (inactive) | 2.45 µM (inactive) | > 100 µM (inactive) | > 100 µM (inactive) | > 100 µM (inactive) | > 100 µM (inactive) | > 100 µM (inactive) | > 100 µM (inactive) | – | > 100 µM (inactive) | > 100 µM (inactive) | > 100 µM (inactive) | > 100 µM (inactive) | > 100 µM (inactive) | > 100 µM (inactive) | > 100 µM (inactive) | > 100 µM (inactive) |
| CCOC(=O)[C@@]1(C(C)=O)CC(C)=C(C)C[S@@+]1[O-] | > 100 µM (inactive) | > 100 µM (inactive) | > 100 µM (inactive) | > 100 µM (inactive) | > 100 µM (inactive) | – | – | > 100 µM (inactive) | > 100 µM (inactive) | > 100 µM (inactive) | > 100 µM (inactive) | > 100 µM (inactive) | > 100 µM (inactive) | 50.2 µM (inactive) | > 100 µM (inactive) | > 100 µM (inactive) | > 100 µM (inactive) | > 100 µM (inactive) | > 100 µM (inactive) | > 100 µM (inactive) |
| Cc1cn([C@H]2C[C@](C)(CO)N(C)O2)c(=O)[nH]c1=O | > 100 µM (inactive) | > 100 µM (inactive) | > 100 µM (inactive) | > 100 µM (inactive) | > 100 µM (inactive) | – | – | > 100 µM (inactive) | > 100 µM (inactive) | > 100 µM (inactive) | > 100 µM (inactive) | > 100 µM (inactive) | > 100 µM (inactive) | > 100 µM (inactive) | > 100 µM (inactive) | > 100 µM (inactive) | > 100 µM (inactive) | > 100 µM (inactive) | > 100 µM (inactive) | > 100 µM (inactive) |
| C=C1C(=O)O[C@@H]2CC(CO)=C([C@@H](C)CCCO)[C@@H](OC(=O)/C(C)=C\C)[C@H]12 | 15.1 µM (inactive) | 25.9 µM (inactive) | 15.1 µM (inactive) | 15.6 µM (inactive) | 27.2 µM (inactive) | 2.29 µM (inactive) | 22.2 µM (inactive) | 16 µM (inactive) | 11.9 µM (inactive) | 13.3 µM (inactive) | 21.6 µM (inactive) | 8.39 µM (inactive) | 15.6 µM (inactive) | 19.6 µM (inactive) | 16 µM (inactive) | 24.9 µM (inactive) | 14.6 µM (inactive) | 1.88 µM (inactive) | 28.5 µM (inactive) | 14.7 µM (inactive) |
| O=C(/C=C/c1cccc(Oc2ccccc2)c1)NCc1ccc(C(=O)NCCc2ccccc2)cc1 | > 100 µM (inactive) | > 100 µM (inactive) | > 100 µM (inactive) | > 100 µM (inactive) | 29.4 µM (inactive) | – | 14.8 µM (inactive) | > 100 µM (inactive) | 20 µM (inactive) | > 100 µM (inactive) | > 100 µM (inactive) | > 100 µM (inactive) | 33.5 µM (inactive) | > 100 µM (inactive) | > 100 µM (inactive) | 82.4 µM (inactive) | > 100 µM (inactive) | > 100 µM (inactive) | > 100 µM (inactive) | > 100 µM (inactive) |
| CCN(CC)C(=S)SC(=S)N(CC)CC | 35.4 µM (inactive) | > 100 µM (inactive) | 43.4 µM (inactive) | 41.6 µM (inactive) | 31.3 µM (inactive) | – | > 62.8 µM (inactive) | 38.1 µM (inactive) | 36.6 µM (inactive) | 23.3 µM (inactive) | 28.5 µM (inactive) | 23.4 µM (inactive) | 41.9 µM (inactive) | 39.4 µM (inactive) | 20.8 µM (inactive) | 32.9 µM (inactive) | 27.3 µM (inactive) | 0.0482 µM (active) | > 100 µM (inactive) | 28.6 µM (inactive) |
